Measurements taken from US20130165368A1, “ANTIMICROBIAL COMPOUNDS” (priority 2010, published 2013).

system: Staphylococcus aureus (MRSA); assay: MIC agar dilution, micro-organism 12 (11939); type: cell-based; settings: Staphylococcus aureus, MRSA, 22 h, Staphylococcus aureus (MRSA) 11939; 22 hrs; read-out: MIC
Procedure: (§1) Throughout the period of testing the microbial strains were subcultured and incubated for 18-20 hours at 37° C. on a weekly basis. Horse blood agar plates were used to sustain the micro-organisms both prior to and throughout testing. The alkoxylated alkanols listed in Table II below were obtained (these are obtainable from Sigma-Aldrich Company Ltd, Dorset, England), each having a GC purity of at least 97%.
(§2) Molar equivalent concentrations were used to allow comparison between compounds of differing molecular mass. Due to weighing difficulties, any compound in solid form was melted in a water bath prior to dilution. To make ten-times strength concentrations, which takes into account agar dilution, 0.0352 mmol of each compound was weighed into plastic universal bottles and 4 mL of sterile distilled water (SDW) was added. To produce a homogenous emulsion the universals were vortexed; once achieved the emulsions were serial diluted by adding 2 mL to 2 mL of SDW.
(§3) Myristyl alcohol and lauryl alcohol were re-weighed and dissolved in 25 μL of the polar solvent 1-methyl-2-pyrrolidone (M6762; Sigma-Aldrich) in sterile glass universals due to an inability to achieve an even suspension. To maintain an even emulsion in the presence of SDW 37.5 μL of the non-ionic detergent Tween 20 (P1379, Sigma-Aldrich) was also added. 3.9375 mL of SDW was added to these, to create a 4 mL volume; they were vortexed and diluted as before.
(§4) For every 100 mL of Isosensitest agar (IST) (CM0471; Oxoid, Basingstoke, England), 3.1 g of the IST powder was added to 100 mL SDW (as per manufacturer's instructions) and sterilised for 15 minutes at 121° C. Once sterilised, the molten agar was cooled to 50° C. in a water-bath. Subsequently 4.8 g of CCEY powder (BC2160; Bioconnections, Wetherby, England), also known as Brazier's medium, was added to 100 mL SDW for every 100 mL of agar needed. This was then sterilised for 15 minutes at 121° C. Once sterilised the molten agar was cooled to 50° C. in a water-bath and 4 mL of egg-yolk emulsion (S2073; TCS Biosciences Ltd, Buckingham, United Kingdom) and 1 mL of lysed defibrinated horse blood (HB035; TCS Biosciences Ltd, Buckingham, United Kingdom) were also added for every 100 mL needed. Horse blood lysis is achieved by dilution to half concentration with SDW; when fully lysed the mixture will turn dark red in colour.
(§5) 18 mL agar was added to each universal and then poured into sterile Petri dishes. This step creates a 1/10 dilution resulting in agar plates of the required strength. Control plates for each set of strains were created by adding 18 mL of agar to 2 mL of SDW.
(§6) Suspensions of each bacterial species were prepared with a density equal to that of a 0.5 McFarland standard using a densitometer. All suspensions were made using sterile distilled water and fresh 18-20 hour cultures. As a 0.5 McFarland standard contains 1.5×10^8 CFU/mL and the multipoint inoculators applies 1 μL spots of liquid, each bacterial suspension was diluted 1/15 (20 μL suspension to 280 μL sterile distilled water).
(§7) Bacterial suspensions were prepared from fresh 18-24 hour cultures as previously described. 1 μL of each strain was inoculated onto all 100 agar plates containing a different chemical concentration and the 2 control plates. This was done using a multipoint inoculator which inoculates 20 strains per plate. All plates were incubated for 22 hours at 37° C. in aerobic conditions.
(§8) Each plate was examined for bacterial growth after 22 and 48 hours, with each being incubated in between examinations. A positive result was recorded as growth of ≧10 colonies. A negative result was recorded as growth of <10 colonies as this is equivalent to 99.9% inhibition. The lowest concentration of chemical that inhibited growth was recorded as the MIC. The results are recorded in Table IV below, where the numbers are quoted in mmol/L. […]

| SMILES | MIC [µM] |
| --- | --- |
| CCCCCCCCCCO [D0, 1-Decanol, reference compound] | > 880 |
| CCCCCCCCCCOCCO [D1, Ethylene Glycol Monodecyl Ether, reference compound] | > 880 |

same assay, conditions: Staphylococcus aureus, MRSA, 48 h, Staphylococcus aureus (MRSA) 11939; 48 hrs; read-out: MIC

| SMILES | MIC [µM] |
| --- | --- |
| CCCCCCCCCCO [D0, 1-Decanol, reference compound] | > 880 |
| CCCCCCCCCCOCCO [D1, Ethylene Glycol Monodecyl Ether, reference compound] | > 880 |

system: Providencia rettgeri; assay: MIC agar dilution, micro-organism 3 (7475); type: cell-based; settings: Providencia rettgeri 7475; 22 hrs; read-out: MIC
Procedure: as §1, §2, §3, §4, §5, §6, §7, §8

| SMILES | MIC [µM] |
| --- | --- |
| CCCCCCCCCCO [D0, 1-Decanol, reference compound] | > 880 |
| CCCCCCCCCCOCCO [D1, Ethylene Glycol Monodecyl Ether, reference compound] | > 880 |

same assay, conditions: Providencia rettgeri 7475; 48 hrs; read-out: MIC

| SMILES | MIC [µM] |
| --- | --- |
| CCCCCCCCCCO [D0, 1-Decanol, reference compound] | > 880 |
| CCCCCCCCCCOCCO [D1, Ethylene Glycol Monodecyl Ether, reference compound] | > 880 |

system: Enterococcus faecalis; assay: MIC agar dilution, micro-organism 17 (775); type: cell-based; settings: Enterococcus faecalis 775; 22 hrs; read-out: MIC
Procedure: as §1, §2, §3, §4, §5, §6, §7, §8

| SMILES | MIC [µM] |
| --- | --- |
| CCCCCCCCCCO [D0, 1-Decanol, reference compound] | > 880 |
| CCCCCCCCCCOCCO [D1, Ethylene Glycol Monodecyl Ether, reference compound] | > 880 |

same assay, conditions: Enterococcus faecalis 775; 48 hrs; read-out: MIC

| SMILES | MIC [µM] |
| --- | --- |
| CCCCCCCCCCO [D0, 1-Decanol, reference compound] | > 880 |
| CCCCCCCCCCOCCO [D1, Ethylene Glycol Monodecyl Ether, reference compound] | > 880 |

system: Bacillus subtilis; assay: MIC agar dilution, micro-organism 18 (9372); type: cell-based; settings: Bacillus subtilis 9372; 22 hrs; read-out: MIC
Procedure: as §1, §2, §3, §4, §5, §6, §7, §8

| SMILES | MIC [µM] |
| --- | --- |
| CCCCCCCCCCO [D0, 1-Decanol, reference compound] | > 880 |
| CCCCCCCCCCOCCO [D1, Ethylene Glycol Monodecyl Ether, reference compound] | > 880 |

same assay, conditions: Bacillus subtilis 9372; 48 hrs; read-out: MIC

| SMILES | MIC [µM] |
| --- | --- |
| CCCCCCCCCCO [D0, 1-Decanol, reference compound] | > 880 |
| CCCCCCCCCCOCCO [D1, Ethylene Glycol Monodecyl Ether, reference compound] | > 880 |

system: Staphylococcus epidermidis; assay: MIC agar dilution, micro-organism 14 (11047); type: cell-based; settings: Staphylococcus epidermidis 11047; 22 hrs; read-out: MIC
Procedure: as §1, §2, §3, §4, §5, §6, §7, §8

| SMILES | MIC [µM] |
| --- | --- |
| CCCCCCCCCCO [D0, 1-Decanol, reference compound] | > 880 |
| CCCCCCCCCCOCCO [D1, Ethylene Glycol Monodecyl Ether, reference compound] | > 880 |

same assay, conditions: Staphylococcus epidermidis 11047; 48 hrs; read-out: MIC

| SMILES | MIC [µM] |
| --- | --- |
| CCCCCCCCCCO [D0, 1-Decanol, reference compound] | > 880 |
| CCCCCCCCCCOCCO [D1, Ethylene Glycol Monodecyl Ether, reference compound] | > 880 |

system: Escherichia coli; assay: MIC agar dilution, micro-organism 1 (10418); type: cell-based; settings: Escherichia coli 10418; 22 hrs; read-out: MIC
Procedure: as §1, §2, §3, §4, §5, §6, §7, §8

| SMILES | MIC [µM] |
| --- | --- |
| CCCCCCCCCCO [D0, 1-Decanol, reference compound] | > 880 |
| CCCCCCCCCCOCCO [D1, Ethylene Glycol Monodecyl Ether, reference compound] | > 880 |

same assay, conditions: Escherichia coli 10418; 48 hrs; read-out: MIC

| SMILES | MIC [µM] |
| --- | --- |
| CCCCCCCCCCO [D0, 1-Decanol, reference compound] | > 880 |
| CCCCCCCCCCOCCO [D1, Ethylene Glycol Monodecyl Ether, reference compound] | > 880 |

system: Candida albicans; assay: MIC agar dilution, micro-organism 19 (90028); type: cell-based; settings: Candida albicans 90028; 22 hrs; read-out: MIC
Procedure: as §1, §2, §3, §4, §5, §6, §7, §8

| SMILES | MIC [µM] |
| --- | --- |
| CCCCCCCCCCO [D0, 1-Decanol, reference compound] | > 880 |
| CCCCCCCCCCOCCO [D1, Ethylene Glycol Monodecyl Ether, reference compound] | > 880 |

same assay, conditions: Candida albicans 90028; 48 hrs; read-out: MIC

| SMILES | MIC [µM] |
| --- | --- |
| CCCCCCCCCCO [D0, 1-Decanol, reference compound] | > 880 |
| CCCCCCCCCCOCCO [D1, Ethylene Glycol Monodecyl Ether, reference compound] | > 880 |

system: Enterococcus faecium; assay: MIC agar dilution, micro-organism 16 (7171); type: cell-based; settings: Enterococcus faecium 7171; 22 hrs; read-out: MIC
Procedure: as §1, §2, §3, §4, §5, §6, §7, §8

| SMILES | MIC [µM] |
| --- | --- |
| CCCCCCCCCCO [D0, 1-Decanol, reference compound] | > 880 |
| CCCCCCCCCCOCCO [D1, Ethylene Glycol Monodecyl Ether, reference compound] | > 880 |

same assay, conditions: Enterococcus faecium 7171; 48 hrs; read-out: MIC

| SMILES | MIC [µM] |
| --- | --- |
| CCCCCCCCCCO [D0, 1-Decanol, reference compound] | > 880 |
| CCCCCCCCCCOCCO [D1, Ethylene Glycol Monodecyl Ether, reference compound] | > 880 |

system: Listeria monocytogenes; assay: MIC agar dilution, micro-organism 15 (11994); type: cell-based; settings: Listeria monocytogenes 11994; 22 hrs; read-out: MIC
Procedure: as §1, §2, §3, §4, §5, §6, §7, §8

| SMILES | MIC [µM] |
| --- | --- |
| CCCCCCCCCCO [D0, 1-Decanol, reference compound] | > 880 |
| CCCCCCCCCCOCCO [D1, Ethylene Glycol Monodecyl Ether, reference compound] | > 880 |

same assay, conditions: Listeria monocytogenes 11994; 48 hrs; read-out: MIC

| SMILES | MIC [µM] |
| --- | --- |
| CCCCCCCCCCO [D0, 1-Decanol, reference compound] | > 880 |
| CCCCCCCCCCOCCO [D1, Ethylene Glycol Monodecyl Ether, reference compound] | > 880 |

system: Candida glabrata; assay: MIC agar dilution, micro-organism 20 (3943); type: cell-based; settings: Nakaseomyces glabratus, 22 h, Candida glabrata 3943; 22 hrs; read-out: MIC
Procedure: as §1, §2, §3, §4, §5, §6, §7, §8

| SMILES | MIC [µM] |
| --- | --- |
| CCCCCCCCCCO [D0, 1-Decanol, reference compound] | > 880 |
| CCCCCCCCCCOCCO [D1, Ethylene Glycol Monodecyl Ether, reference compound] | > 880 |

same assay, conditions: Nakaseomyces glabratus, 48 h, Candida glabrata 3943; 48 hrs; read-out: MIC

| SMILES | MIC [µM] |
| --- | --- |
| CCCCCCCCCCO [D0, 1-Decanol, reference compound] | > 880 |
| CCCCCCCCCCOCCO [D1, Ethylene Glycol Monodecyl Ether, reference compound] | > 880 |

system: Staphylococcus aureus; assay: MIC agar dilution, micro-organism 13 (6571); type: cell-based; settings: Staphylococcus aureus, 22 h, Staphylococcus aureus 6571; 22 hrs; read-out: MIC
Procedure: as §1, §2, §3, §4, §5, §6, §7, §8

| SMILES | MIC [µM] |
| --- | --- |
| CCCCCCCCCCO [D0, 1-Decanol, reference compound] | > 880 |
| CCCCCCCCCCOCCO [D1, Ethylene Glycol Monodecyl Ether, reference compound] | > 880 |

same assay, conditions: Staphylococcus aureus, 48 h, Staphylococcus aureus 6571; 48 hrs; read-out: MIC

| SMILES | MIC [µM] |
| --- | --- |
| CCCCCCCCCCO [D0, 1-Decanol, reference compound] | > 880 |
| CCCCCCCCCCOCCO [D1, Ethylene Glycol Monodecyl Ether, reference compound] | > 880 |

system: Steptococcus pyogenes; assay: MIC agar dilution, micro-organism 11 (8306); type: cell-based; settings: 22 h, Steptococcus pyogenes 8306; 22 hrs; read-out: MIC
Procedure: as §1, §2, §3, §4, §5, §6, §7, §8

| SMILES | MIC [µM] |
| --- | --- |
| CCCCCCCCCCO [D0, 1-Decanol, reference compound] | > 880 |
| CCCCCCCCCCOCCO [D1, Ethylene Glycol Monodecyl Ether, reference compound] | > 880 |

same assay, conditions: 48 h, Steptococcus pyogenes 8306; 48 hrs; read-out: MIC

| SMILES | MIC [µM] |
| --- | --- |
| CCCCCCCCCCO [D0, 1-Decanol, reference compound] | > 880 |
| CCCCCCCCCCOCCO [D1, Ethylene Glycol Monodecyl Ether, reference compound] | > 880 |

system: Gram negative bacteria, Gram positive bacteria and pathogenic yeasts; assay: MIC agar dilution, summary statements over the micro-organisms tested (Tables I, IX); type: cell-based; settings: over the micro-organisms tested or some of them; read-out: MIC
Text: For a better understanding, the present invention will now be more particularly described, by way of non-limiting example only, as follows. The micro-organisms shown in Table I overleaf were acquired from the National Collection of Type Cultures (NCTC), Colindale, United Kingdom; the American Type Culture Collection (ATCC), Manassas, United States and the National Collection of Pathogenic Fungi (NCPF), Colindale, United Kingdom. They include Gram negative bacteria, Gram positive bacteria and pathogenic yeasts.
as §1, §2, §3, §4, §5, §6
as §7, with “conditions. […]” for “conditions.”

| SMILES | MIC [µM] |
| --- | --- |
| CCCCCCCCCCO [D0, 1-Decanol, reference compound] | > 880 |
| CCCCCCCCCCOCCO [D1, Ethylene Glycol Monodecyl Ether, reference compound] | > 880 |
